Series [1] has as its target human cannabinoid receptors 2 (hCBR2s) (Homo sapiens, UniProt P34972). The settings on record: cited from earlier work.
For the next series, the system named is macrophages. The settings on record: cited from earlier work.
In series [2] the test system is intracellular reactive oxygen species. The settings on record: cited from earlier work.
A further series relates to rotavirus. The settings on record: HT29.f8 cells; cited from earlier work.
Series [3] has as its system resveratrol prenyltransferase AhR4DT. The series is described as follows: Prenyltransferase assay with microsomal fraction of elicited peanut hairy roots. The format is biochemical, Arachis hypogaea. The settings on record: microsomal fraction of peanut hairy roots, 28° C., 60 min; read-out: apparent km.
For series [4] the following is noted: in vivo; cited from earlier work.
In a further series the test system is leukemia HL-60 cells. Particulars: cited from earlier work.
The test system of series [5] is SK-MEL, KB, BT-549, and SK-OV-3. The settings on record: BT-549, SK-OV-3; cited from earlier work.
Series [6] is described as follows: Lipophilicity from retention in reverse-phase HPLC. The settings on record: later retention time in reverse-phase HPLC.
The next series concerns resveratrol prenylation. The series is described as follows: Screening for stilbenoid prenylation activity, crude extract of infiltrated N. benthamiana leaves. The format is biochemical, Arachis hypogaea. The settings on record: resveratrol and DMAPP as substrates. The method, then: The engineered A. tumefaciens was grown in 5 mL of YEP medium, containing 50 mg/L of kanamycin (Sigma-Aldrich) and 30 mg/L of streptomycin (Sigma-Aldrich) for antibiotic selection, at 28° C. on an orbital shaker at 200 rpm. After cultivation for 2 days, 5 mL of bacterial suspension was inoculated into 50 mL of fresh YEP medium containing the antibiotics and allowed to grow for one additional day under the same conditions. Bacteria were pelleted by centrifugation, resuspended in 500 mL of induction medium containing 10 mM MgCl2 with 1 mM acetosyringone and incubated for 4 h at 28° C. under 200 rpm orbital shaking until their OD600 reached to a range from 0.5 to 0.6. Before the infiltration, 0.005% of Tween-20, 0.005% of Triton 100 and 0.005% of Silwet L-77 were added to bacterial cultures to enhance the efficiency of transformation in N. benthamiana leaves. Agrobacterium-mediated vacuum infiltration was performed on 4-week-old N. benthamiana following the methodology described previously (Medrano et al., 2009).
After 48 hours of post-infiltration, the “middle tier” of N. benthamiana leaves were harvested for prenylation activity screening. Five grams of leaf tissue (fresh weight) were grounded and homogenized using a mortar with pestle in 10 mL of extraction buffer containing 100 mM Tris-HCl (pH 7.6) and 10 mM dithiothreitol (DTT). […] The total protein concentration was determined by coomassie protein assay (Thermo Scientific) using bovine serum albumin as standard.
The reaction of crude cell-free extract of N. benthamiana leaves infiltrated with A. tumefaciens harboring the empty pBIB-Kan vector was used as control.

Substrate in series [7]: CC(C)=CCOP(=O)(O)OP(=O)(O)O
The series is described as follows: cells, lysate or membranes named. Particulars: other: microsomal fraction of N. benthamiana leaves, pH 9.0, 28° C.

Substrate in series [8]: Oc1cc(O)cc(/C=C/c2ccc(O)c(O)c2)c1
The series is described as follows: cells, lysate or membranes named.

Substrate in series [9]: Oc1ccc(/C=C/c2cc(O)cc(O)c2)cc1
The series is described as follows: cells, lysate or membranes named. The settings on record: other: microsomal fraction of N. benthamiana leaves, pH 9.0, 28° C.

A further series addresses AhR3′DT-1 (Arachis hypogaea, UniProt A0A2H4GDD0). The series is described as follows: AhR3′DT-1 activity in microsomal fraction of N. benthamiana leaves. Particulars: N. benthamiana leaves.
For a further series, the target named is AhR4DT-1 (Arachis hypogaea, UniProt A0A2H4GDC8). The series is described as follows: AhR4DT-1 activity in microsomal fraction of N. benthamiana leaves. The settings on record: N. benthamiana leaves.

The values below come from patent US11535856B2, “Stilbenoid prenyltransferases from plants” (Arkansas State University—Jonesboro, priority 2016, dated 2022).

Chain of human cannabinoid receptors 2 (hCBR2s) (P34972 whole entry): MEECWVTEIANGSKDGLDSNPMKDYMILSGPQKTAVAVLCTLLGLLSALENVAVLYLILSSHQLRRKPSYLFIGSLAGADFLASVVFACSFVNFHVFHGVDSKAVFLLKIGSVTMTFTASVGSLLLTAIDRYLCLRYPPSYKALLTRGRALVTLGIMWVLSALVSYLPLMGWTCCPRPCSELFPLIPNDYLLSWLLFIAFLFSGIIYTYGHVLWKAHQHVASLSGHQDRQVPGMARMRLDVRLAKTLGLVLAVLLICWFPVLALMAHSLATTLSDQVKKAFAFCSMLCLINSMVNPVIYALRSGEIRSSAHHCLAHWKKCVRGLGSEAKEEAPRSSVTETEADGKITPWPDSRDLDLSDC

With `CC(C)/C=C/c1c(O)cc(/C=C/c2ccc(O)cc2)cc1O` [arachidin-3], the “binding to hCBR2s” value in series [1] is listed as “shown to bind”. Moreover, the “inhibiting inducible nitric oxide production” value in the series on macrophages is “more effective than resveratrol”. For the same molecule, in series [2], the “inhibiting production of intracellular reactive oxygen species” value is “greater potency over resveratrol”. The replication of rotavirus result with rotavirus was “inhibiting the replication of rotavirus”.

By Km is commonly meant the concentration of substrate that gives half-maximal velocity. As to `Oc1ccc(/C=C/c2cc(O)cc(O)c2)cc1` [resveratrol, 3,5,4′-trihydroxy-trans-stilbene], the Km in series [3] was determined as 111 ± 40.4 µM. The oral bioavailability entry in series [4] is given as “limited oral bioavailability”.

With `CC(C)=CCc1c(O)cc(/C=C/c2ccc(O)cc2)cc1O` [arachidin-2], the “inhibiting inducible nitric oxide production” value with macrophages is “more effective than resveratrol”. Further, in series [2], the “inhibiting production of intracellular reactive oxygen species” value is reported as “greater potency over resveratrol”.

For the molecule `CC(C)/C=C/c1c(O)cc(/C=C/c2ccc(O)c(O)c2)cc1O` [arachidin-1], the “binding to hCBR2s” value in series [1] was “shown to bind”. Moreover, the “inhibiting inducible nitric oxide production” value in the series with macrophages is “more effective than resveratrol”. Further, the cytotoxicity result (in the series with leukemia HL-60 cells; in series [5]) was “higher cytotoxicity than resveratrol” throughout. Further, the replication of rotavirus entry in the series with rotavirus is given as “inhibiting the replication of rotavirus”. Moreover, the “lipophilicity compared with 3,3-dimethylallyl analogs” value in series [6] was “higher lipophilicity”.

B1: AhR3′DT-1 (Arachis hypogaea) (protein)
chain: MAFGVVAASFSRAPSIVTTRGCYVTRASLPNKSLKFSKEYNLKTSLQHNWKHNSRSIFERGSTITTCDKYDEKKYLMNVTQSHEAEPHSQSILKSIIDALDAFRKFSRFYAFIAMVVGSLSTSLLAVDNLTELYPAFFNGFLQCMAAYFFMHLYIVGINQLADLEIDKINKPYLPLASGNYSFRTAVITVTSFLFTGFGIAWIIGSKPLLWTIFASFVLMTAYSVNLPLLRWKKSTILTVMGNTLSMVISFNLGPFYHMKTHVLKKAATFPRSLLFAVVVMSMYYIVIALTKDIPDIEGDKEAGLQTLAIRLGPKTVFWSSVALLEMAYGAAIIIGASSPFLWSKISVVLSHAILALFVWYRSTLVDLSNKDSLQAFYMLIFKLFSVENILMLFVR
B1: the resveratrol prenyltransferase activity entry in the series with resveratrol prenylation is “highest activity”. The Km in series [7] came out at 691.4 ± 48.46 µM; in series [8] (pH 9.0, 28.0 °C), 50.3 ± 5.509 µM; in series [9], 17.67 ± 1.601 µM. Besides, the “specific activity, microsomal fraction vs crude cell-free extracts” value with AhR3′DT-1 came out at 13.9 fold.

B2: AhR4DT-1 (Arachis hypogaea) (protein)
chain: MAFGHLVLIPRSTSSIATTAASCWKSKKFADNYYANSYGRRALWQSDRNLTKDHSIKTSLQHNISKLHYNPIERGSRCNKIEKTYLTNASSSAQSHESEPEVHESPKALESIKKGLVMFLQFCRLYAFLGMIPAGLSSSLLAVDNFSEISPLLFLKGVLQYIVTFFFTSQFVMGVNQLSDVEIDKINKPDLPLASGEYSFTSGVILVTSFLLAGFGVAWMLGSQPLIWSVVVTAALMGAYSVNFPLLRWKRSIILTSLSNAIAMLASFHIGPFLHMKTFVLKKAATFPRSMILGCVVIGLFYTIITLTKDLGDVEGDKAAGLKTLPIRLGVKPVFWLCVSLIQMAYGIAITMGALSPVLWSKIVTVVAHAFMVFYVWNHALNSVDLSSKDSLHSFHLFMFKLVTVEGILIQFVR
With B2, the Km in [7] was 153.7 ± 27.28 µM; in series [8] (other: microsomal fraction of N. benthamiana leaves, pH 9.0, 28° C.), 311.4 ± 54.83 µM; in series [9] it was 99.52 ± 15.11 µM. For the same molecule, in the series with AhR4DT-1, the “specific activity, microsomal fraction vs crude cell-free extracts” value stood at 8.9 fold.
